We go through 24 molecules from patent publication US9790210B2, “N-(monocyclic aryl),N'-pyrazolyl-urea, thiourea, guanidine and cyanoguanidine compounds as TrkA kinase inhibitors” (Array BioPharma Inc., priority 2012, dated 2017).

As a reminder, the IC50 is the point on the concentration scale where inhibition reaches its midpoint.

SMILES strings stand for the structures. Where a name gives a salt, the structure may show the parent alone.

Sequence of TrkA (P04629 440-796 limits assumed): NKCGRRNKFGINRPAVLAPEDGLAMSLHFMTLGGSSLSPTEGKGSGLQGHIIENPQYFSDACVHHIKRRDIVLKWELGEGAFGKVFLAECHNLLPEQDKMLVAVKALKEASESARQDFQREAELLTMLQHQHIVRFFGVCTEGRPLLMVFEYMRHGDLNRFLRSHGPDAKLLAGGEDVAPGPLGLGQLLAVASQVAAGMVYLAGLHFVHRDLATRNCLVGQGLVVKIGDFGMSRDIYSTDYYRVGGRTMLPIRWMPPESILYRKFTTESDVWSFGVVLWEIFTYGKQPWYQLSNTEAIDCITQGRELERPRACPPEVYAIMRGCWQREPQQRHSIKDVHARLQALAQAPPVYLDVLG

The target of the assay is TrkA (Homo sapiens, UniProt P04629). Put plainly: TrkA LanthaScreen Eu Kinase Binding Assay. The arrangement: 6HIS tagged cytoplasmic domain from Invitrogen, Catalog No. PV3144; purchased Invitrogen PV3144. Particulars: averaged IC50; TR-FRET binding assay; read-out: TrkA Enzyme IC50. How it is done:
TrkA binding activity was determined in a TrkA LanthaScreen™ Eu Kinase Binding Assay. 5 nM His-tagged recombinant human TrkA (6HIS tagged cytoplasmic domain from Invitrogen, Catalog No. PV3144) was incubated with 4 nM Alexa-Fluor® Tracer 236 (Invitrogen Cat. No. PV5592), 2 nM biotinylated anti-His (Invitrogen Cat. No. PV6090), and 2 nM europium-labeled Streptavidin (Invitrogen Cat. No. PV5899), in buffer (25 mM MOPS, pH 7.5, 5 mM MgCl2, 0.005% Triton X-100). Three fold serial dilutions of compounds of the invention in DMSO were added to a final percentage of 2% DMSO. After 60-minute incubation at 22° C., the reaction was measured using the EnVision mutlimode plate reader (PerkinElmer) via TR-FRET dual wavelength detection at […]. The percent of control was calculated using a ratiometric emission factor. The IC50 values were determined by fitting a four parameter model to the percent of control data.
Table A provides averaged IC50 values for compounds of the invention when tested in the assay of Example A, where A represents an averaged IC50 value<100 nM; B represents an averaged IC50 value from 100 to 1,000 nM; and C represents an averaged IC50 value from 1,000 to 10,000 nM.
A general note: TR-FRET usually uses a lanthanide donor and a delayed reading to cut background.
As to `CNC(=O)c1nn(-c2ccccc2)c(NC(=O)Nc2cc(C(F)(F)F)ccc2CCCOC)c1C` [Example 26, 5-(3-(2-(3-methoxypropyl)-5-(trifluoromethyl)phenyl)ureido)-N,4-dimethyl-1-phenyl-1H-pyrazole-3-carboxamide], the IC50 was < 100 nM.
Consider `CNC(=O)c1nn(-c2ccccc2)c(NC(=O)Nc2cc(Cl)c(Cl)cc2CC(F)(F)COC)c1C` [Example 27, 5-(3-(4,5-dichloro-2-(2,2-difluoro-3-methoxypropyl)phenyl)ureido)-N,4-dimethyl-1-phenyl-1H-pyrazole-3-carboxamide], for which the IC50 is < 100 nM.
Next, `COCCCc1cc(Cl)c(Cl)cc1NC(=O)Nc1c(C)c(OCCN2CCN(C)CC2)nn1-c1ccccc1` [Example 28, 1-(4,5-dichloro-2-(3-methoxypropyl)phenyl)-3-(4-methyl-3-(2-(4-methylpiperazin-1-yl)ethoxy)-1-phenyl-1H-pyrazol-5-yl)urea]: < 100 nM; `COCCCc1cc(Cl)c(Cl)cc1NC(=O)Nc1c(C)c(OCCC2CCN(C)CC2)nn1-c1ccccc1` [Example 29, 1-(4,5-dichloro-2-(3-methoxypropyl)phenyl)-3-(4-methyl-3-(2-(1-methylpiperidin-4-yl)ethoxy)-1-phenyl-1H-pyrazol-5-yl)urea]: < 100 nM.
To `COCCCc1cc(Cl)c(Cl)cc1NC(=O)Nc1c(C)c(OC2CCN(C)CC2)nn1-c1ccccc1` [Example 30, 1-(4,5-dichloro-2-(3-methoxypropyl)phenyl)-3-(4-methyl-3-((1-methylpiperidin-4-yl)oxy)-1-phenyl-1H-pyrazol-5-yl)urea] belongs < 100 nM.
To `COCCCc1cc(Cl)c(Cl)cc1NC(=O)Nc1c(C)c(OC[C@@H]2CN(C)CCO2)nn1-c1ccccc1` [Example 31, (S)-1-(4,5-dichloro-2-(3-methoxypropyl)phenyl)-3-(4-methyl-3-((4-methylmorpholin-2-yl)methoxy)-1-phenyl-1H-pyrazol-5-yl)urea] belongs < 100 nM.
As to `COCCCc1cc(Cl)c(Cl)cc1NC(=O)Nc1c(C)c(OC[C@H]2CN(C)CCO2)nn1-c1ccccc1` [Example 32, (R)-1-(4,5-dichloro-2-(3-methoxypropyl)phenyl)-3-(4-methyl-3-((4-methylmorpholin-2-yl)methoxy)-1-phenyl-1H-pyrazol-5-yl)urea], the half-inhibitory concentration (IC50) was < 100 nM.
To `COCCCc1cc(Cl)c(Cl)cc1NC(=O)Nc1c(C)c(C(=O)NC2CCN(C)CC2)nn1-c1ccccc1` [Example 33, 5-(3-(4,5-dichloro-2-(3-methoxypropyl)phenyl)ureido)-4-methyl-N-(1-methylpiperidin-4-yl)-1-phenyl-1H-pyrazole-3-carboxamide] belongs < 100 nM; to `COCCCc1cc(Cl)c(Cl)cc1NC(=O)Nc1c(C)c(OC[C@H]2CCCN(C)C2)nn1-c1ccccc1` [Example 34, (S)-1-(4,5-dichloro-2-(3-methoxypropyl)phenyl)-3-(4-methyl-3-((1-methylpiperidin-3-yl)methoxy)-1-phenyl-1H-pyrazol-5-yl)urea], < 100 nM.
Turning to `COCCCc1cc(Cl)c(Cl)cc1NC(=O)Nc1c(C)c(OC[C@@H]2CCCN(C)C2)nn1-c1ccccc1` [Example 35, (R)-1-(4,5-dichloro-2-(3-methoxypropyl)phenyl)-3-(4-methyl-3-((1-methylpiperidin-3-yl)methoxy)-1-phenyl-1H-pyrazol-5-yl)urea], the concentration for half-maximal inhibition (IC50) was < 100 nM.
Regarding `COCCCc1cc(Cl)c(Cl)cc1NC(=O)Nc1c(C)c(C(=O)NC2CCOCC2)nn1-c1ccccc1` [Example 36, 5-(3-(4,5-dichloro-2-(3-methoxypropyl)phenyl)ureido)-4-methyl-1-phenyl-N-(tetrahydro-2H-pyran-4-yl)-1H-pyrazole-3-carboxamide], the IC50 is < 100 nM.
To `COCCCc1cc(Cl)c(Cl)cc1NC(=O)Nc1c(C)c(OCC2CN(C)C2)nn1-c1ccccc1` [Example 37, 1-(4,5-dichloro-2-(3-methoxypropyl)phenyl)-3-(4-methyl-3-((1-methylazetidin-3-yl)methoxy)-1-phenyl-1H-pyrazol-5-yl)urea] belongs < 100 nM.
Next, `COCCCc1cc(Cl)c(Cl)cc1NC(=O)Nc1c(C)c(OC[C@@H]2CNCCO2)nn1-c1ccccc1` [Example 38, (S)-1-(4,5-dichloro-2-(3-methoxypropyl)phenyl)-3-(4-methyl-3-(morpholin-2-ylmethoxy)-1-phenyl-1H-pyrazol-5-yl)urea hydrochloride]: < 100 nM; `COCCCc1cc(Cl)c(Cl)cc1NC(=O)Nc1c(C)c(OCCN2CCNCC2)nn1-c1ccccc1` [Example 39, 1-(4,5-dichloro-2-(3-methoxypropyl)phenyl)-3-(4-methyl-1-phenyl-3-(2-(piperazin-1-yl)ethoxy)-1H-pyrazol-5-yl)urea dihydrochloride]: < 100 nM.
Next, `COCCCc1cc(Cl)c(Cl)cc1NC(=O)Nc1c(C)c(OCCC2CCNCC2)nn1-c1ccccc1` [Example 40, 1-(4,5-dichloro-2-(3-methoxypropyl)phenyl)-3-(4-methyl-1-phenyl-3-(2-(piperidin-4-yl)ethoxy)-1H-pyrazol-5-yl)urea hydrochloride]: < 100 nM; `COCCCc1cc(Cl)c(Cl)cc1NC(=O)Nc1c(C)c(OCC2CCNCC2)nn1-c1ccccc1` [Example 41, 1-(4,5-dichloro-2-(3-methoxypropyl)phenyl)-3-(4-methyl-1-phenyl-3-(piperidin-4-ylmethoxy)-1H-pyrazol-5-yl)urea hydrochloride]: < 100 nM; `COCCCc1cc(Cl)c(Cl)cc1NC(=O)Nc1c(C)c(OC2CCNCC2)nn1-c1ccccc1` [Example 42, 1-(4,5-dichloro-2-(3-methoxypropyl)phenyl)-3-(4-methyl-1-phenyl-3-(piperidin-4-yloxy)-1H-pyrazol-5-yl)urea hydrochloride]: < 100 nM.
As for `COCCCc1cc(Cl)c(Cl)cc1NC(=O)Nc1c(C)c(OCC2CCCN2)nn1-c1ccccc1` (stereo not drawn) [Example 43, 1-(4,5-dichloro-2-(3-methoxypropyl)phenyl)-3-(4-methyl-1-phenyl-3-(pyrrolidin-2-ylmethoxy)-1H-pyrazol-5-yl)urea hydrochloride], the 50% inhibitory concentration (IC50) is < 100 nM.
Take `COCCCc1cc(Cl)c(Cl)cc1NC(=O)Nc1c(C)c(OC[C@H]2CNCCO2)nn1-c1ccccc1` [Example 44, (R)-1-(4,5-dichloro-2-(3-methoxypropyl)phenyl)-3-(4-methyl-3-(morpholin-2-ylmethoxy)-1-phenyl-1H-pyrazol-5-yl)urea hydrochloride]: the half-maximal inhibitory concentration (IC50) is < 100 nM.
To `COCCCc1cc(Cl)c(Cl)cc1NC(=O)Nc1c(C)c(OCC2(F)CCNCC2)nn1-c1ccccc1` [Example 45, 1-(4,5-dichloro-2-(3-methoxypropyl)phenyl)-3-(3-((4-fluoropiperidin-4-yl)methoxy)-4-methyl-1-phenyl-1H-pyrazol-5-yl)urea hydrochloride] belongs < 100 nM; to `COCCCc1cc(Cl)c(Cl)cc1NC(=O)Nc1c(C)c(OC[C@H]2CCCNC2)nn1-c1ccccc1` [Example 46, (S)-1-(4,5-dichloro-2-(3-methoxypropyl)phenyl)-3-(4-methyl-1-phenyl-3-(piperidin-3-ylmethoxy)-1H-pyrazol-5-yl)urea hydrochloride], < 100 nM.
To `COCCCc1cc(Cl)c(Cl)cc1NC(=O)Nc1c(C)c(OC[C@@H]2CCCNC2)nn1-c1ccccc1` [Example 47, (R)-1-(4,5-dichloro-2-(3-methoxypropyl)phenyl)-3-(4-methyl-1-phenyl-3-(piperidin-3-ylmethoxy)-1H-pyrazol-5-yl)urea hydrochloride] belongs < 100 nM; to `COCCCc1cc(F)c(C(F)(F)F)cc1NC(=O)Nc1c(C)c(OC)nn1-c1ccccc1` [Example 48, 1-(4-fluoro-2-(3-methoxypropyl)-5-(trifluoromethyl)phenyl)-3-(3-methoxy-4-methyl-1-phenyl-1H-pyrazol-5-yl)urea], < 100 nM; to `COCCCc1cc(Cl)c(Cl)cc1NC(=O)Nc1c(C)c(OCCN2CCN(C(=O)OC(C)(C)C)CC2)nn1-c1ccccc1` [Example 49, tert-butyl 4-(2-((5-(3-(4,5-dichloro-2-(3-methoxypropyl)phenyl)ureido)-4-methyl-1-phenyl-1H-pyrazol-3-yl)oxy)ethyl)piperazine-1-carboxylate], < 100 nM.
